The nature of one data set: Solubility test in water. In kind it is physicochemical. As to conditions: thermodynamic from solid; deionized water, 37° C. The method, then: Saturated solutions were formulated, filtered and analyzed by HPLC with a sample volume of 1 μL, 3 μL, 5 μL, 10 μL, 15 µL and 20 μL sequentially, and the standard curves of the corresponding compounds were drawn.
[…] of the above compounds were formulated, dissolved by ultrasound for 4 h, and placed on a water bath at 37° C. to stand for 1 h. The resulting unsaturated solutions were centrifuged. 30 μL of supernatants were removed, diluted by adding 200 μL of deionized water, and then filtered.

Data set [1] is described as follows: Conversion of Compound 23 to Compound 1 in HEPES7.4 solution. In kind it is physicochemical. As to conditions: HEPES buffer solution, 37° C. The method, then:
Formulation of HEPES 7.4 solution: 1.6 g of NaCl, 0.074 g of KCl, 0.027 g of Na2HPO4, 0.2 g of glucose and 1 g of a 4-hydroxyethyl piperazine ethanesulfonic acid (HEPES) solution were placed in 90 mL of distilled water, the pH of which was adjusted to 7.4 with 0.5 M NaOH, and then the volume was adjusted to 100 mL with distilled water.
250 μL of the mouse serum or the HEPES7.4 solution was added into the sample, incubated at 37° C., and sampled at different time points, respectively. 20 μL of samples were taken into EP tubes, into which was added 60 μL of methanol, vortexed to mix well, and centrifuged at 12000 rpm at 4° C. for 10 min. The supernatants were taken at 1 h, 2 h, 4 h, 8 h and 12 h, respectively. The samples were analyzed by HPLC with an injection volume of 10 μL, and the corresponding peak areas were recorded. The chromatographic conditions were as follows: the chromatographic column was Hanbang C18 (4.6×250 mm, 5 um); the mobile phase was acetonitrile: […] of ammonium formate solution =60: 40; the flow rate was 1.0 mL/min; the detection wavelength was 210 nm; and the column temperature was 30° C.

The subject of a further data set is Hepa1-6 cells. Nature of the data set: Hepa1-6 subcutaneous mouse xenograft model. In kind it is in vivo, C57BL/6 mice. As to conditions: 2 weeks. As to the method:
(§1) Hepa1-6 cells were cultured and amplified in vitro. Appropriate amount of the cells in logarithmic growth phase were resuspended in a suspension of a serum-free DMEM medium and Matrigel (1:1) to prepare a cell suspension in 2.5×10^6/100 μL under sterile conditions. 100 μL of the cell suspension was subcutaneously inoculated into the armpits of the front left limbs of C57BL/6 mice with a syringe. When the tumor volume grew to 100-200 mm^3, animals with moderate tumor size were randomly divided into groups, with 6 animals in each group. […] The mice were administered intragastrically every day for 2 weeks. During the administration, the weights and tumor diameters of the mice were measured every day. After the experiment, the mice were sacrificed by cervical dislocation, and the tumors were taken and weighed. The formula for calculating a tumor volume (TV) is: TV=½×a×b^2, where a represents the long diameter of a tumor; b represents the short diameter of a tumor.

The test system of a further data set is MDSCs and T cells. Nature of the data set: H22 xenograft model, flow cytometry of MDSCs and T cells in tumor and spleen. Format: in vivo, BALB/c mice. The method, then: as §1, with “H22” for “Hepa1-6”, “RPMI 1640” for “DMEM”, “3×105/100” for “2.5×10^6/100”, “BALB/c” for “C57BL/6”
The tumor-bearing mice were sacrificed by the cervical dislocation method, placed in a beaker containing 75% alcohol, and the tumors of the mice were peeled off. The tumors were first soaked in a sterile petri dish containing RPMI 1640. After all the tumors were peeled off, fingernail sized tumor was cut off and transferred to a 1.5 mL EP tube. The tumors were cut into small pieces, and transferred into a 15 mL centrifuge tube containing 3-5 mL of digestive enzymes (Collagenase IV 1 mg/mL, Hyaluronidase 1 mg/mL, and DNase I 20 U/mL), and digested in a shaker at 200 rpm and 37° C. for 1 h. After digestion, the mixture was allowed to pass through a 200-mesh screen to obtain the suspension of the tumor cells. The resulting tumor suspension was centrifuged at 1600 rpm for 5 min. The supernatant was aspirated away. 1 mL of 1×PBS was added into each tube to resuspend the cells. The cell suspension was transferred into a 1.5 mL EP tube, and centrifuged at 1600 rpm for 5 min. The supernatant was removed. 100 μL of 1×PBS was used in each tube to resuspend the cells respectively. Then 1 μL of a viability dye was added. The mixture was incubated at room temperature in the dark for 15 min after being mixed well. At the same time, the spleen was taken out with a tweezer, placed into a sterile petri dish containing 5 mL of the RPMI 1640 medium, and positioned on a 200-mesh cell screen. The spleen was gently ground with the needle core of a 10 mL syringe. A small amount of the RPMI 1640 medium was aspirated to rinse the cell screen. The spleen cell suspension was rinsed into a 15 mL centrifuge tube, and centrifuged at 1600 rpm for 5 min to collect cells. The cells were washed once with 1×PBS. 3 mL of an erythrocyte lysate (diluted with ddH2O) was added to each tube to lyse for 5 min. After lysing, 10 mL of 1×PBS was added to each tube to stop lysing. The mixture was centrifuged at 1600 rpm for 5 min. 1 mL of 1×PBS was added to each 15 mL centrifuge tube. The mixture was transferred to a 1.5 mL EP tube, and centrifuged at 1600 rpm for 5 min. 1 mL of 1×PBS was added to each tube of the stained tumor cells and lysed spleen cells respectively to wash once. The mixture was centrifuged at 1600 rpm for 5 min, and the supernatant was removed. 100 μL of 1×PBS was used to resuspend the tumor cells and spleen cells respectively. 1 μL of the FcX™ antibody was then added to each tube. The mixture was incubated at room temperature in the dark for 10 min. After the incubation, 1 μL of each of the CD45, CD11b and Gr1 antibodies was added to each tube sequentially. The mixture was incubated at 4° C. in the dark for 30 min, and washed once with 1×PBS after the incubation. The supernatant was discarded. 300 μL of 1×PBS was used to resuspend the cells. The mixture was filtered through a filter membrane into a flow tube, and detected on a machine.

Another data set deals with NLRP3 inflammasome. As to conditions: read-out: inhibitory activity against the NLRP3 inflammasome activation, EC50; cited from earlier work.

The values that follow come from patent US20240124409A1, “GUAIANOLIDE SESQUITERPENE LACTONE DERIVATIVES AND PHARMACEUTICAL USE THEREOF” (NANJING UNIVERSITY OF CHINESE MEDICINE, priority 2021, published 2024).

Structures are written as SMILES. pEC50: −log10 of the molar value. ≈ marks a conversion by molar mass, not a printed value. Marks after values point to notes of the source that are not given here.

For the molecule `C=C1C(=O)O[C@@H]2[C@@H]3[C@]4(CC[C@@]3(C)O)C[C@]4(C)CC[C@@H]12` [Compound 1], the solubility in “Solubility test in water” was 1140 µg/mL (≈ 4.35 mM).
On to `CN(C)C[C@@H]1C(=O)O[C@H]2[C@H]1CC[C@@]1(C)C[C@]13CC[C@@](C)(O)[C@H]23` [Compound 23], for which the “content of Compound 1 (converted from Compound 23)” value in data set [1] (1 h) was determined as 5.36%; in data set [1] (2 h) it was 11.05%; in data set [1] (4 h), 19.64%; in data set [1] (8 h), 39.29%; in data set [1] (12 h), 55.36%. The Tumor growth inhibition in the data set on Hepa1-6 cells (8.43 mg/kg/d i.g.) is 96.78%***. In the data set on Hepa1-6 cells (8.43 mg/kg/d i.g.), this molecule showed a Tumor weight of 0.03 g. In addition, the “MDSCs in Spleen” value in the data set on MDSCs and T cells (8.43 mg/kg/d) came out at 23.10%. In the data set with MDSCs and T cells (8.43 mg/kg/d), this molecule returned an MDSCs in tumor of 7.86%. Further, the “T Cells in Spleen” value in the data set on MDSCs and T cells (8.43 mg/kg/d) is given as 37.19%. Also, the “T Cells in tumor” value with MDSCs and T cells (8.43 mg/kg/d) came out at 29.44%.
For `C=C1C(=O)O[C@@H]2[C@H]3C(C)=CC[C@@]34O[C@@]4(C)CC[C@@H]12` [arglabin, reference compound], in the data set with Hepa1-6 cells (10 mg/kg/d i.g.), the Tumor growth inhibition amounted to 95.86%*** and the Tumor weight worked out at 0.04 g. Besides, in the data set with MDSCs and T cells (10 mg/kg/d), the “MDSCs in Spleen” value was found to be 27.89%, the MDSCs in tumor is reported as 27.0%, the “T Cells in Spleen” value came to 27.02% and the “T Cells in tumor” value is 17.72%. The pEC50 with NLRP3 inflammasome is 8.00.
